Experimental findings from patent US9758526B2, “Quinoline-substituted compound” (TAIHO PHARMACEUTICAL CO., LTD., priority 2013, dated 2017) are described below.

Molecules are shown by their SMILES. Some results are limits rather than exact numbers.

Experiment [1] deals with T1, EGFR (L858R) (Homo sapiens, UniProt P00533, L858R).
T1 construct: purchased Carna Biosciences, Inc
Description: EGFR (L858R) kinase inhibitory activity. Type of experiment: biochemical. Conditions: ATP 4 μM. The procedure: (§1) Among the materials of the inhibitory activity measurement, the substrate peptide and the kinase protein were obtained as follows. A peptide with biotinylated N-terminus (biotin-EEPLYWSFPAKKK) was synthesized with reference to FL-Peptide 22, a reagent for LabChip® series of PerkinElmer, Inc. For the kinase protein, a purified recombinant human EGFR (T790M/L858R) protein of Carna Biosciences, Inc. was purchased.
(§2) The inhibitory activity measurement was performed as follows. The compounds of the present invention were individually dissolved in dimethyl sulfoxide (DMSO), and serial dilutions of these compounds were prepared using DMSO. Subsequently, a solution containing the substrate peptide (final concentration: 250 nM), magnesium chloride (final concentration: 10 mM), manganese chloride (final concentration: 10 mM), and ATP (final concentration: 1 μM) in a buffer solution for kinase reaction (Carna Biosciences, Inc.) was mixed with the dilutions of the compounds (final concentration of DMSO upon kinase reaction: 2.5%) or DMSO (final concentration: 2.5%). EGFR (T790M/L858R) protein was further added thereto, and the mixtures were incubated at 25° C. for 120 minutes to carry out a kinase reaction. EDTA was added thereto to a final concentration of 24 mM to thereby terminate the reaction. A phosphorylated thyrosine detection solution containing europium (Eu)-labeled anti-phosphorylated tyrosine antibody PT66 (PerkinElmer, Inc.) and SureLight APC-SA (PerkinElmer, Inc.) was added to the reaction mixtures, and the mixtures were allowed to stand at room temperature for 2 hours or more. For the background, a sample to which EDTA was added before addition of EGFR (T790M/L858R) protein was incubated at 25° C. for 120 minutes, using DMSO instead of the DMSO solution of the compound. The detection solution was also added to this sample, and the mixture was allowed to stand for 2 hours or more. Finally, for all of the test samples, the amount of fluorescence at the time of irradiation of excitation light having a wavelength of 337 nm was measured at dual wavelengths of 620 nm and 665 nm by PHERAstar FS (BMG LABTECH), and a ratio of the fluorescence amounts at the two wavelengths was obtained as data.
(§3) Based on the above rates, phosphorylation inhibition rates (%) were calculated for the samples to which various concentrations of the compound solutions were added. Finally, the obtained reaction inhibition rates (%) at the respective concentrations were plotted for each compound, and the IC50 value (nM), which is a compound concentration at which phosphorylation by EGFR (T790M/L858R) is inhibited by 50%, was determined using XLfit curve-fitting software (IDBS).
The inhibitory activities of the compounds of the present invention against EGFR (L858R) kinase activity were measured.
The materials, the measurement method, and the data analysis method were substantially the same as those shown in the above description regarding “Measurement of EGFR (T790M/L858R) Kinase Inhibitory Activity,” except that a purified recombinant human EGFR (L858R) protein purchased from Carna Biosciences, Inc. was used as the kinase protein, and the measurement was performed with ATP at a final concentration of 4 μM. Finally, the IC50 value (nM) of each compound with respect to EGFR (L858R) was determined by data analysis.

The subject of experiment [2] is A431 expressing EGFR (WT). Description: Growth inhibition, A431 expressing EGFR (WT). Type of experiment: cell-based. Conditions: Homo sapiens, A-431, 72 h; cultured three days, CellTiter-Glo. The method, then:
(§4) (1) A human […] lung cancer cell line NCI-H1975 expressing EGFR (T790M/L858R), (2) a human non-small cell lung cancer cell line HCC827 expressing EGFR (d746-750), and (3) a human epithelioid cancer cell line A431 expressing EGFR (WT) were each suspended in complete growth medium recommended by ATCC. The cell suspensions were seeded in each well of a 384-well flat microplate or a 96-well flat plate, and cultured in an incubator containing 5% carbon dioxide gas at 37° C. for one day. Each compound of the present invention was dissolved in DMSO, and serial dilutions of the test compound were prepared using DMSO (to a concentration 500 times the final concentration). The DMSO solution of the test compound or DMSO was diluted with complete growth medium, and the resulting solution was added to each well of the cell culture plate so that the final concentration of DMSO was 0.2%. Then, the cells were cultured in an incubator containing 5% carbon dioxide gas at 37° C. for three days. The number of cells was measured before the addition of the DMSO solution of the test compound, as well as after addition and culture by using a CellTiter-Glo Assay® (produced by Promega) according to a protocol recommended by Promega.
(§5) For each cell, the cell growth inhibition rates of the wells to which the test compounds at various concentrations were added were calculated by the following formula. Then, the obtained inhibition rates (%) at the respective concentrations were plotted for each test compound, and the GI50 value (nM), which is a test compound concentration at which the cell growth can be inhibited by 50%, was determined using XLfit curve-fitting software (IDBS). • Cell Growth Inhibition Rate (%)=(C−T)/(C−CO)×100 • T: Luminescence intensity of well cultured for three days after addition of the test compound solution • C: Luminescence intensity of well cultured for three days after addition of DMSO • C0: Luminescence intensity of well before addition of the test compound solution
Background: Cellular ATP, detected with luciferase, serves as a proxy for viable cell number.

In experiment [3] the target is T2, EGFR (d746-750) (Homo sapiens, UniProt P00533, DEL746-750).
T2 construct: purchased Carna Biosciences, Inc
T2 sequence (P00533 with tags, fused parts or gaps DEL746-750 limits assumed): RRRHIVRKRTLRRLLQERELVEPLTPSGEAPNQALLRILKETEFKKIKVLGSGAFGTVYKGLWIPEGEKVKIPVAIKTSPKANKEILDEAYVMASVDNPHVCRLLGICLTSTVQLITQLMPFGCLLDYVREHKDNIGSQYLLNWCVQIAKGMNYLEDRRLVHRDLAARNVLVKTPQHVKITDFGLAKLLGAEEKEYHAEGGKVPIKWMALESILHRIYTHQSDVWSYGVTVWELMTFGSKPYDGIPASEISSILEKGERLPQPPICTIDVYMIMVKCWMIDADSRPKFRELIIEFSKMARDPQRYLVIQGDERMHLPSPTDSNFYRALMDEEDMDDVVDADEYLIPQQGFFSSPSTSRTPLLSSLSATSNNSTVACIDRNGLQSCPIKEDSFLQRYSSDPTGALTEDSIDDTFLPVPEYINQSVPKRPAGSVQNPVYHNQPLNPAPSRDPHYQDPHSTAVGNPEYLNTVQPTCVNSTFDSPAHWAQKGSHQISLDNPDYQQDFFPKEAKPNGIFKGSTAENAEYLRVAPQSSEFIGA
As to the kind of experiment: EGFR (d746-750) kinase inhibitory activity. Conditions: ATP 5 μM, kinase reaction 90 minutes. It is filed as biochemical. The method, then: as §1, §2, §3
The inhibitory activities of the compounds of the present invention against EGFR (d746-750) kinase activity were measured.
The materials, the measurement method, and the data analysis method were substantially the same as those shown in the above description regarding “Measurement of EGFR (T790M/L858R) Kinase Inhibitory Activity,” except that a purified recombinant human EGFR (d746-750) protein purchased from Carna Biosciences, Inc. was used as the kinase protein, the measurement was performed with ATP at a final concentration of 5 μM, and the incubation for the kinase reaction was performed for 90 minutes. Finally, the IC50 value (nM) of each compound with respect to EGFR (d746-750) was determined by data analysis.

The test system of experiment [4] is NCI-H1975 expressing EGFR (T790M/L858R). Description: Growth inhibition, NCI-H1975 expressing EGFR (T790M/L858R). It is filed as cell-based. Conditions: Homo sapiens, NCI-H1975, 72 h; cultured three days, CellTiter-Glo. The method, then: as §4, §5
For experiment [5], the system named is HCC827 expressing EGFR (d746-750). As to the kind of experiment: Growth inhibition, HCC827 expressing EGFR (d746-750). Type of experiment: cell-based. The note with it: Homo sapiens, HCC827, 72 h; cultured three days, CellTiter-Glo. The method, then:
as §4, §5

The target of experiment [6] is T3, EGFR (T790M/L858R) (Homo sapiens, UniProt P00533, L858R/T790M).
T3 construct: purchased Carna Biosciences, Inc
T3 sequence (P00533 25-1210 T790M/L858R): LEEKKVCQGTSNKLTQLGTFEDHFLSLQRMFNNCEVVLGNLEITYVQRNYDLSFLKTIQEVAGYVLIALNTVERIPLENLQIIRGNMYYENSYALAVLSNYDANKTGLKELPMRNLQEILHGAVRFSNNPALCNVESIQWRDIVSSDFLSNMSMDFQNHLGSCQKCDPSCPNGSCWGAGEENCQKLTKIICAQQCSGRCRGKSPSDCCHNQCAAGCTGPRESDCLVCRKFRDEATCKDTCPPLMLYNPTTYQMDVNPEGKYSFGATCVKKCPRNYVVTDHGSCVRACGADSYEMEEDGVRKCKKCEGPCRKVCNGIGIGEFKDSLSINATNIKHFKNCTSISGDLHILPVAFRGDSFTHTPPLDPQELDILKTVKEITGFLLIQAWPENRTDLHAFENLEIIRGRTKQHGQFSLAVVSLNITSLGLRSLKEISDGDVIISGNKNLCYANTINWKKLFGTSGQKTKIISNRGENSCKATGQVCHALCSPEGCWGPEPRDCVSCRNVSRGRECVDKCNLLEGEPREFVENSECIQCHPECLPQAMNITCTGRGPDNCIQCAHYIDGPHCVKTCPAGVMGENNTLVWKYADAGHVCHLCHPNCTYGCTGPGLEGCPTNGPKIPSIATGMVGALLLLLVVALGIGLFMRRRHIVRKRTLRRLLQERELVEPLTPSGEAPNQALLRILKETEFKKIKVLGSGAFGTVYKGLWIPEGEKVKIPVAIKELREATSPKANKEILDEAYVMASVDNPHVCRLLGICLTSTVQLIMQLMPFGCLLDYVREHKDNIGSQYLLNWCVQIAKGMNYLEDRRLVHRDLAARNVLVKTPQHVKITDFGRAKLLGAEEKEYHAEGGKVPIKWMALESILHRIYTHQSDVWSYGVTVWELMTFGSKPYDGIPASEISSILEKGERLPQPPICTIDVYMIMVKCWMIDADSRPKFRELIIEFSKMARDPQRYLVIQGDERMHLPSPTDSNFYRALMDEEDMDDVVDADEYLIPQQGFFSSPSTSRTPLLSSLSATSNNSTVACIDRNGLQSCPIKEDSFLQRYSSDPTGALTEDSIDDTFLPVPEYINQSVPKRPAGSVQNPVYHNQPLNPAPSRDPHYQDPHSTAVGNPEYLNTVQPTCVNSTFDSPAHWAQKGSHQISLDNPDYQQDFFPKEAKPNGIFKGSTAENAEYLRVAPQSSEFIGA
Description: EGFR (T790M/L858R) kinase inhibitory activity. Type of experiment: biochemical. The note with it: ATP 1 μM, 25° C. for 120 minutes. The procedure:
The inhibitory activities of the compounds of the present invention against EGFR (T790M/L858R) kinase activity were measured.
as §1, §2, §3

Experiment [7] deals with T4, EGFR (WT) (Homo sapiens, UniProt P00533).
T4 construct: expressing a cytoplasmic domain of human EGFR (WT) with its N-terminus fused to a FLAG tag; FLAG (N); made in house; host or cells: insect Sf9 cells, baculovirus expression system
T4 sequence (P00533 669-1210 limits assumed): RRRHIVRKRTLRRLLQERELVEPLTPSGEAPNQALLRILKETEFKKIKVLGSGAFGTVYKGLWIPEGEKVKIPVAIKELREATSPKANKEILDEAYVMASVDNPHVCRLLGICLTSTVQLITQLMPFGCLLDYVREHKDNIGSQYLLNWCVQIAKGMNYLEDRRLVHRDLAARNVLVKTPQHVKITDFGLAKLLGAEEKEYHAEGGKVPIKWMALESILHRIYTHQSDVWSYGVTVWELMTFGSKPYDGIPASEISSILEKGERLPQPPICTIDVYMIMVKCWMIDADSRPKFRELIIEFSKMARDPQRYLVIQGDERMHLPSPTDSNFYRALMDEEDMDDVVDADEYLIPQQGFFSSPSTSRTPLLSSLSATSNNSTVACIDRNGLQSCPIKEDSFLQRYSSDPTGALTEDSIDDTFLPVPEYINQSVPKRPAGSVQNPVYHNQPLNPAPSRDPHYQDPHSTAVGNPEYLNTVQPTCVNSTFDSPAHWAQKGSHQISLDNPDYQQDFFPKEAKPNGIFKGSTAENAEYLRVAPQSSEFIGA
As to the kind of experiment: EGFR (WT) kinase inhibitory activity. Conditions: substrate peptide 500 nM. Type of experiment: biochemical. The method, then:
as §1, §2, §3
The inhibitory activities of the compounds of the present invention against EGFR (WT) kinase activity were measured.
The materials, the measurement method, and the data analysis method were substantially the same as those shown in the above description regarding “Measurement of EGFR (T790M/L858R) Kinase Inhibitory Activity,” except that a kinase protein prepared by expressing a cytoplasmic domain of human EGFR (WT) with its N-terminus fused to a FLAG tag in insect Sf9 cells using a baculovirus expression system and then purifying it with anti-FLAG antibody agarose (Sigma-Aldrich) was used as the kinase protein, the final concentration of the substrate peptide was 500 nM, and the final concentration of ATP was […]. Finally, the IC50 value (nM) of each compound with respect to EGFR (WT) was determined by data analysis.

Experiment [8] addresses T5, EGFR (d746-750/T790M) (Homo sapiens, UniProt P00533, DEL746-750/T790M).
T5 construct: purchased Carna Biosciences, Inc
Description: EGFR (d746-750/T790M) kinase inhibitory activity. It is filed as biochemical. Conditions: ATP 1.5 μM. The procedure: as §1, §2, §3
The inhibitory activities of the compounds of the present invention against EGFR (d746-750/T790M) kinase activity were measured.
The materials, the measurement method, and the data analysis method were substantially the same as those shown in the above description regarding “Measurement of EGFR (T790M/L858R) Kinase Inhibitory Activity,” except that a purified recombinant human EGFR (d746-750/T790M) protein purchased from Carna Biosciences, Inc. was used as the kinase protein, and the measurement was performed with an ATP final concentration of 1.5 μM. Finally, the IC50 value (nM) of each compound with respect to EGFR (d746-750/T790M) was determined by data analysis.

T5 sequence (P00533 with tags, fused parts or gaps DEL746-750/T790M limits assumed): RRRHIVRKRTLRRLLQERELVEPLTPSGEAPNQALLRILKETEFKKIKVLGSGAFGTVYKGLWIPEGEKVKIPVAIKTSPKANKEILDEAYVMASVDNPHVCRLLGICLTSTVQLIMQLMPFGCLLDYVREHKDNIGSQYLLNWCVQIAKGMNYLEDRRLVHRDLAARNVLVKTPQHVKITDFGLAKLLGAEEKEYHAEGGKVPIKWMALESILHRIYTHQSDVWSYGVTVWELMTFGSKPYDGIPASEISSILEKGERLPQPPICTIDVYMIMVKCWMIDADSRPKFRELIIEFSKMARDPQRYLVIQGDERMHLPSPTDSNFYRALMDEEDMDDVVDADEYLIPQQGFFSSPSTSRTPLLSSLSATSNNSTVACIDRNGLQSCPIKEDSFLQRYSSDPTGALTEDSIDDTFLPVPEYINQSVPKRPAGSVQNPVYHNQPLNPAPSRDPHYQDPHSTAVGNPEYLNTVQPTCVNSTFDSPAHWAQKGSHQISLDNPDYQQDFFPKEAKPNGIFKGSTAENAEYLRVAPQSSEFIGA
T1 sequence (P00533 25-1210 L858R): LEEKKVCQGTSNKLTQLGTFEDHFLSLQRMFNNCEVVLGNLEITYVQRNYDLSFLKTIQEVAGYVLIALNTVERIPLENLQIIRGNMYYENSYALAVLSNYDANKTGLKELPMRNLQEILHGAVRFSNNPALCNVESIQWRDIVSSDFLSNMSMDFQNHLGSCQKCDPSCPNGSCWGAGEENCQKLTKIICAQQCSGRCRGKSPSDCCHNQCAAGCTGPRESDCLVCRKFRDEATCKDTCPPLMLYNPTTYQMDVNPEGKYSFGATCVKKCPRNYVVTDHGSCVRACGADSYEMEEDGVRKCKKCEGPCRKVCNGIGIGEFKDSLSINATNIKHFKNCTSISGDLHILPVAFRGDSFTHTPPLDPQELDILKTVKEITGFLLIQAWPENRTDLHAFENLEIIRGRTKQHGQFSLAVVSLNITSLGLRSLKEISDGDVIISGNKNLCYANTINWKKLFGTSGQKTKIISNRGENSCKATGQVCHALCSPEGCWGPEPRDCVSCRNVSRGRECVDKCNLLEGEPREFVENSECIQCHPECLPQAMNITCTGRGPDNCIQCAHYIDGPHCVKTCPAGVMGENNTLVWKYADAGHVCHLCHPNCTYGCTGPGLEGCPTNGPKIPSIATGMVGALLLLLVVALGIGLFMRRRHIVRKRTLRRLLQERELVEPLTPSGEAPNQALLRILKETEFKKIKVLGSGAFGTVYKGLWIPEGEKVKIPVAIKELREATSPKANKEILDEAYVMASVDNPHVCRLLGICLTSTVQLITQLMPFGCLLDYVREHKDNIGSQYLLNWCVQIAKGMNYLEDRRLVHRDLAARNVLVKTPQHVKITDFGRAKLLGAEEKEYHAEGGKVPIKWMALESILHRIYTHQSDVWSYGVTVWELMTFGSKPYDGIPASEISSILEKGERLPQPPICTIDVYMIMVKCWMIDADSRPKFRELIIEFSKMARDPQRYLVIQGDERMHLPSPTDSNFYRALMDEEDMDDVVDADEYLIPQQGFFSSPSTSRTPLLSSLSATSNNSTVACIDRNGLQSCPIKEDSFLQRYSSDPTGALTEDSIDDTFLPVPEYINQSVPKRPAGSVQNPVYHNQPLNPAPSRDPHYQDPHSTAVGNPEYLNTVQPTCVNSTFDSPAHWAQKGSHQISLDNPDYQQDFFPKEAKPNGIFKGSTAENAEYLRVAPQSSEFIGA

Usually IC50 stands for the concentration at which inhibition is half-maximal. Read a low IC50 as inhibition by little substance. The term GI50 denotes the concentration that inhibits growth by half. Take `C=C(C)C(=O)N[C@@H]1Cn2c(c(-c3cnc4ccccc4c3)c3c(N)ncnc32)C1=C` [Example 2, (S)—N-(4-amino-6-methylene-5-(quinolin-3-yl)-7,8-dihydro-6H -pyrimido[5,4-b]pyrrolizin-7-yl)methacrylamide]: the concentration for half-maximal inhibition (IC50) in experiment [1] was 230 nM; in experiment [3], 78 nM; in experiment [6], 77 nM; in experiment [7], 1400 nM; in experiment [8], 30 nM. Moreover, the GI50 in experiment [2] was above 10000 nM; in experiment [4], 4200 nM; in experiment [5] it was 780 nM.

With `C=C1c2c(-c3cnc4ccccc4c3)c3c(N)ncnc3n2C[C@H]1NC(=O)/C=C/CN(C)C` [Example 4, (S,E)-N-(4-amino-6-methylene-5-(quinolin-3-yl)-7,8-dihydro-6H-pyrimido[5,4-b]pyrrolizin-7-yl)-4-(dimethylamino)but-2-enamide], the IC50 in experiment [1] is 0.63 nM; in experiment [3], 0.45 nM; in experiment [6], 0.4 nM; in experiment [7] it was 6 nM; in experiment [8] it was below 0.5 nM. For the same molecule, the GI50 in experiment [2] came out at 2400 nM; in experiment [4], 140 nM; in experiment [5], 5.5 nM.

With `C=C1c2c(-c3cnc4ccccc4c3)c3c(N)ncnc3n2C[C@H]1NC(=O)/C=C/Cl` [Example 5, (S,E)-N-(4-amino-6-methylene-5-(quinolin-3-yl)-7,8-dihydro-6H-pyrimido[5,4-b]pyrrolizin-7-yl)-3-chloroacrylamide], the IC50 in experiment [1] was below 0.15 nM; in experiment [3] it was below 0.15 nM; in experiment [6], below 0.15 nM; in experiment [7], 0.78 nM; in experiment [8] it was below 0.15 nM. Also, the GI50 is 2200 nM in experiment [2], 51 nM in experiment [4] and 8.1 nM in experiment [5].

In the case of `C=C1c2c(-c3cnc4ccccc4c3)c3c(N)ncnc3n2C[C@H]1NC(=O)/C=C\Cl` [Example 6, (S,Z)—N-(4-amino-6-methylene-5-(quinolin-3-yl)-7,8-dihydro-6H-pyrimido[5,4-b]pyrrolizin-7-yl)-3-chloroacrylamide], the IC50 was 0.45 nM in experiment [1]; 0.24 nM in experiment [3]; 0.24 nM in experiment [6]; 4.9 nM in experiment [7]; below 0.15 nM in experiment [8]. Moreover, the GI50 came to 520 nM in experiment [2], 54 nM in experiment [4] and 3.3 nM in experiment [5].

With `C=C1c2c(-c3cnc4ccccc4c3)c3c(N)ncnc3n2C[C@H]1NC(=O)/C=C/CN1CCCCC1` [Example 7, (S,E)-N-(4-amino-6-methylene-5-(quinolin-3-yl)-7,8-dihydro-6H-pyrimido[5,4-b]pyrrolizin-7-yl)-4-(piperidin-1-yl)but-2-enamide], the IC50 in experiment [1] is 1.7 nM; in experiment [3], 1.2 nM; in experiment [6], 1 nM; in experiment [7], 12 nM; in experiment [8], 0.53 nM. In addition, the GI50 in experiment [2] was 2600 nM; in experiment [4] it was 150 nM; in experiment [5], 5.6 nM.

With `C#CC(=O)N[C@@H]1Cn2c(c(-c3cnc4ccccc4c3)c3c(N)ncnc32)C1=C` [Example 8, (S)—N-(4-amino-6-methylene-5-(quinolin-3-yl)-7,8-dihydro-6H-pyrimido[5,4-b]pyrrolizin-7-yl)propiolamide], the IC50 in experiment [1] is below 0.5 nM; in experiment [3], below 0.15 nM; in experiment [6], below 0.5 nM; in experiment [7], 1 nM; in experiment [8] it was below 0.15 nM. In addition, the GI50 in experiment [2] is 1100 nM; in experiment [4], 800 nM; in experiment [5], 66 nM.

On to `C=C1c2c(-c3cnc4ccccc4c3)c3c(N)ncnc3n2C[C@H]1NC(=O)C#CC` [Example 9, (S)—N-(4-amino-6-methylene-5-(quinolin-3-yl)-7,8-dihydro-6H-pyrimido[5,4-b]pyrrolizin-7-yl)but-2-ynamide], for which the IC50 in experiment [1] was 5.9 nM; in experiment [3], 2.3 nM; in experiment [6], 2.1 nM; in experiment [7], 52 nM; in experiment [8], 0.45 nM. Also, the GI50 in experiment [2] amounted to 4200 nM; in experiment [4] it was 770 nM; in experiment [5] it was 7.5 nM.
